Reference: patent US10800775B2, “Pyrazolyl pyrrolo[2,3-b]pyrmidine-5-carboxylate analogs and methods of making the same” (ACLARIS THERAPEUTICS, INC., priority 2017, dated 2020)

What was measured:
[1] = tested on: IFNγ stimulated STAT1 phosphorylation on Tyr701 (JAK1/2); experiment: JAK1/2 phospho-STAT1 cellular target modulation assay, IFNγ stimulated human PBMC; type: cell-based; conditions: IFNγ 10 ng/ml, read-out: Infγ-STAT1 IC50
From the text: (§1) Target modulation was based upon the ability of a compound to inhibit JAK isoform specific phosphorylation of selected substrates. IL-2 stimulated STAT5 phosphorylation on Tyr694 was used to assess JAK1/3 compound selectivity. GM-CSF stimulated STAT5 phosphorylation on Tyr694 was used to assess JAK2 compound selectivity. IFNγ stimulated STAT1 phosphorylation on Tyr701 was used to assess JAK1/2 compound selectivity. For all three assays, human PBMC from frozen stocks were thawed, pelleted, resuspended in complete media (90% RPMI, 10% heat inactivated FBS, 10 mM HEPES, 47 μM 2-ME, pen/strep) and placed in wells of a 96 well V-bottom plate at 200,000 per well in 120 μl complete media. Compounds were added as 15 μl per well of 10× working stock solutions in complete media with 1% DMSO (or medium with 1% DMSO for controls) and placed on a plate shaker in a 37° C. incubator with 5% CO2 for 1 hour with gentle shaking (setting of 3). Stimulation used the addition of soluble cytokines. For the JAK1/3 phospho-STAT5 assay, 15 μl of 10× working stock recombinant human IL-2 was added to a final concentration of 25 ng/ml. For the JAK2 phospho-STAT5 assay, 15 μl of 10× working stock recombinant human GM-CSF was added to a final concentration of 5 ng/ml. For the JAK1/2 phospho-STAT1 assay, 15 μl of 10× working stock of recombinant human IFNγ was added to a final concentration of 10 ng/ml. Plates were then placed back on the plate shaker in the incubator for an additional 5, 5 and 10 minutes respectively upon which the plates were removed from the incubator, sealed with a plate sealer and the cells pelleted at 400×g for 5 minutes. After pelleting, the media was removed by aspiration and the cells were lysed in ELISA specific cell lysis buffer. The levels of phospho-STAT5 were determined using a Phospho (Tyr694)/Total STAT5a,b Whole Cell Lysate kit from Meso Scale Discovery. Levels of phospho-STAT1 were determined using a CST-PathScan Phospho-STAT1 (Tyr701) Sandwich ELISA kit.

JAK1 = JAK1 (Homo sapiens (Human), UniProt P23458); experiment: JAK1 enzyme activity assay (Z-lyte, Thermo Fisher Selectscreen); type: biochemical; conditions: 2 μM Tyr 06 peptide, read-out: JAK1 Inhibition IC50
Sequence of JAK1 (P23458 whole entry): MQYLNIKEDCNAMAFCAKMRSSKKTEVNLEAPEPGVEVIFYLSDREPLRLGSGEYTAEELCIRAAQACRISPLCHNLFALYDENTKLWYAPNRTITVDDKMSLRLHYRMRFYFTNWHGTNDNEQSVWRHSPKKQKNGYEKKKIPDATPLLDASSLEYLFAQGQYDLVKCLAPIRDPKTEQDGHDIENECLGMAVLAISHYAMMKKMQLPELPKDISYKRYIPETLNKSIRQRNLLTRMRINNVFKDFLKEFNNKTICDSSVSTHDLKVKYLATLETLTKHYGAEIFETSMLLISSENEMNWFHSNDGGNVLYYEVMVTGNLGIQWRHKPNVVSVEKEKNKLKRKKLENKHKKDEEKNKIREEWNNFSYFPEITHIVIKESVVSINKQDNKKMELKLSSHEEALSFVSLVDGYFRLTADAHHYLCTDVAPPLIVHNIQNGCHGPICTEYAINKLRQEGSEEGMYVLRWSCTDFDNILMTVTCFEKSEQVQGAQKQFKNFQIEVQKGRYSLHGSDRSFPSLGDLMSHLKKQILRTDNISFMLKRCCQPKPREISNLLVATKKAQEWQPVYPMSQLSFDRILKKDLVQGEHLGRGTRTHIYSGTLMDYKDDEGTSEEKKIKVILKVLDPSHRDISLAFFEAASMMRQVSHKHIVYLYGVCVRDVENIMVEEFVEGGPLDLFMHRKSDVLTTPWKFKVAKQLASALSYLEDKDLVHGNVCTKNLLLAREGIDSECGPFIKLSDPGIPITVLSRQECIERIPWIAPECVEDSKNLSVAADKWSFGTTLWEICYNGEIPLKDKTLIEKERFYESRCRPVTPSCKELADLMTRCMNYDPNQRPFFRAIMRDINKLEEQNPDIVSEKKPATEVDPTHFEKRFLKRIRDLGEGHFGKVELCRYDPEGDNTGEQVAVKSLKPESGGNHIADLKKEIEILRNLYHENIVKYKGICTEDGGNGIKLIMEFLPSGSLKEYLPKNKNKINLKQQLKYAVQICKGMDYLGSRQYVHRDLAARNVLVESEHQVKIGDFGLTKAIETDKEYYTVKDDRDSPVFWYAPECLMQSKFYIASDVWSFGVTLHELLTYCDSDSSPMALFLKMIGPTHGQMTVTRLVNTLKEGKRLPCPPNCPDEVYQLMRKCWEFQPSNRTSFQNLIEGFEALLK
Procedure: The inhibitory potency of candidate compounds of JAK1 done at Thermo Fisher Scientific in their Selectscreen using a Z-lyte assay. The 2×JAK1/Tyr 06 mixture is prepared in 50 mM HEPES pH 6.5, 0.01% BRIJ-35, 10 mM MgCl2, 1 mM EGTA, 0.02% NaN3. The final 10 μL of the Kinase Reaction consists of 21.2-91.5 ng JAK1 and 2 μM Tyr 06 in 50 mM HEPES pH 7.0, 0.01% BRIJ-35, 10 mM MgCl2, 1 mM EGTA, 0.01% NaN3. After the 1 hour Kinase Reaction incubation, 5 μL of a 1:128 dilution of Development Reagent is added.
Background signal is defined in the absence of enzyme and uninhibited signal is defined in the presence of vehicle (2% DMSO) alone. Compounds were evaluated in an 11 point dose-response ranging from […] to 0.34 nM. IC50 values of compounds are determined using a 4 parameter logistical fit of emission ratio as a function of the concentration of compound.

[2] = tested on: IL-2 stimulated STAT5 phosphorylation on Tyr694 (JAK1/3); experiment: JAK1/3 phospho-STAT5 cellular target modulation assay, IL-2 stimulated human PBMC; type: cell-based; conditions: IL-2 25 ng/ml, read-out: IL2-STAT5 Inhibition IC50
From the text: as §1

JAK3 (a.a. 781-1124) = JAK3 (a.a. 781-1124) (Homo sapiens (Human), UniProt P52333); experiment: JAK3 enzyme activity assay (SRCtide phosphorylation, Caliper); type: biochemical; conditions: 2.5 nM JAK3, 1 μM SRCtide, 1 uM ATP; read-out: JAK3 Inhibition IC50
Sequence of JAK3 (a.a. 781-1124) (P52333 781-1124): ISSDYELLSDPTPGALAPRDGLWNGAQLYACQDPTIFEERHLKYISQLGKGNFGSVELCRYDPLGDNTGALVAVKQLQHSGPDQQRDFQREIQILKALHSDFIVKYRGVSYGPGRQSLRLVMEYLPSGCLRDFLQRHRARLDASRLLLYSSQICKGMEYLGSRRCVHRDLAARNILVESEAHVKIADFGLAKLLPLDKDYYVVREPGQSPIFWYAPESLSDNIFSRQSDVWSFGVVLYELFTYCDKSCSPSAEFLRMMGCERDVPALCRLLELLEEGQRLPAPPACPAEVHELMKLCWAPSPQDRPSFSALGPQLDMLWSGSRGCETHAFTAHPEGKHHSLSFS
Procedure: The activity of JAK3 (a.a. 781-1124, ThermoFisher) was quantified by measuring the phosphorylation of SRCtide (FAM-GEEPLYWSFPAKKK-NH2). Kinase reactions were run in a 384-well Greiner plate with 2% final DMSO concentration under the buffer conditions of 20 mM HEPES, pH 7.5, 10 mM MgCl2, 0.01% BSA, and 0.0005% Tween-20. The kinase reaction components were 2.5 nM JAK3, 1 μM SRCtide peptide and 1 uM ATP. Examples were tested in dose-response starting at 2 μM (11 concentrations, 3-fold serial dilution, duplicate reactions). The reactions were incubated at room temperature for 40 minutes, then stopped by adding a 1:1 volume of 30 mM EDTA in 20 mM HEPES, pH 7.5 (15 mM EDTA final). After the reaction was stopped, the phosphorylated and unphosphorylated peptides were separated and quantified using a Caliper LC3000/EZ-Reader system and HTS Well Analyzer Software (Caliper, A PerkinElmer Company, Hopkinton, Mass.). GraFit (Erithacus Software Ltd., Horley, U.K.) was used to calculate inhibitor potency by fitting dose-response data to the 4-parameter logistical IC50 equation.

Row | SMILES | IC50 [1] | IC50 (JAK1) | IC50 [2] | IC50 (JAK3 (a.a. 781-1124))
1 | CCOC(=O)c1cnc2[nH]ccc2c1-c1cnn(C(CC#N)C2CCCC2)c1 (racemic) [Example 1, ethyl 4-(1-(2-cyano-1-cyclopentylethyl)-1H-pyrazol-4-yl)-1H-pyrrolo[2,3-b]pyridine-5-carboxylate] | 100 to 1000 nM | ≤ 10 nM | 100 to 1000 nM | 10 to 100 nM
2 | CC(C)OC(=O)c1cnc2[nH]ccc2c1-c1cnn([C@H](CC#N)C2CCCC2)c1 (single isomer, unassigned; enantiomer 1) [Example 18, isopropyl 4-(1-(2-cyano-1-cyclopentylethyl)-1H-pyrazol-4-yl)-1H-pyrrolo[2,3-b]pyridine-5-carboxylate, enantiomer 1] | 100 to 1000 nM | ≤ 10 nM | ≤ 100 nM | 10 to 100 nM
3 | CC(C)OC(=O)c1cnc2[nH]ccc2c1-c1cnn([C@@H](CC#N)C2CCCC2)c1 (single isomer, unassigned; enantiomer 2) [Example 19, isopropyl 4-(1-(2-cyano-1-cyclopentylethyl)-1H-pyrazol-4-yl)-1H-pyrrolo[2,3-b]pyridine-5-carboxylate, enantiomer 2] | 100 to 1000 nM | 10 to 100 nM | ≤ 100 nM | 10 to 100 nM
4 | CCOC(=O)c1cnc2[nH]ccc2c1-c1cnn([C@H](CC#N)C2CCCC2)c1 (single isomer, unassigned; stereoisomer 1) [Example 16, ethyl 4-(1-(2-cyano-1-cyclopentylethyl)-1H-pyrazol-4-yl)-1H-pyrrolo[2,3-b]pyridine-5-carboxylate stereoisomer 1] | 100 to 1000 nM | ≤ 10 nM | 100 to 1000 nM | 10 to 100 nM
5 | CCOC(=O)c1cnc2[nH]ccc2c1-c1cnn([C@@H](CC#N)C2CCCC2)c1 (single isomer, unassigned; stereoisomer 2) [Example 17, ethyl 4-(1-(2-cyano-1-cyclopentylethyl)-1H-pyrazol-4-yl)-1H-pyrrolo[2,3-b]pyridine-5-carboxylate stereoisomer 2] | 100 to 1000 nM | 10 to 100 nM | 100 to 1000 nM | 10 to 100 nM
6 | CCOC(=O)c1cnc2[nH]ccc2c1-c1cnn(C2(CC#N)CN(S(=O)(=O)CC)C2)c1 [Example 9, ethyl 4-(1-(3-(cyanomethyl)-1-(ethylsulfonyl)azetidin-3-yl)-1H-pyrazol-4-yl)-1H-pyrrolo[2,3b]pyridine-5-carboxylate] | 100 to 1000 nM | ≤ 10 nM | ≤ 100 nM | 10 to 100 nM
7 | CCCOC(=O)c1cnc2[nH]ccc2c1-c1cnn([C@H](CC#N)C2CCCC2)c1 [Example 20, propyl (R)-4-(1-(2-cyano-1-cyclopentylethyl)-1H-pyrazol-4-yl)-1H-pyrrolo[2,3-b]pyridine-5-carboxylate] | 100 to 1000 nM | ≤ 10 nM | ≤ 100 nM | 10 to 100 nM
